Data published in US8618074B2, “GPCR enhanced neuroprotection to treat brain injury” (Board of Regents of the University of Texas System, priority 2007, dated 2013).

Columns and labels:
Type in all cases: cell-based, mouse
[1] = system: astrocytes; experiment: O2 consumption assay (Clark electrode respirometry)
Description: O2 consumption was monitored with a Clark electrode (Mitocell S200 micro respirometry system; Strathkelvin Instruments). Astrocytes (500 μl at 10^5 cells/ml) were loaded into a 500 μl MT200A Respirometer Chamber, suspended by a fixed-speed solid-state magnetic stirrer inside the chamber and maintained at 37° C. by a circulating water bath. O2 was monitored for 4 minutes before injecting 5 μl of ATP (200 μM) into the chamber. O2 consumption was then monitored for another 4 minutes. Changes in O2 levels were calculated by respirometry software. For control recordings, 5 μl of buffer was injected into chamber. Oligomycin astrocytes were treated with oligomycin (0.01 μM) for 30 minutes before trypsinization and loading into chamber.
To further investigate the importance of mitochondrial metabolism on the protective effect of P2Y-R activation, we first measured the rate of O2 consumption for astrocytes with and without P2Y-R activation. Primary cultures of astrocytes were grown to ˜70% confluency, gently removed by trypsin EDTA and resuspended in PBS buffer. Astrocytes (10^5 cells/ml) were then loaded into a 500 μl Respirometer Chamber MT200A) and maintained at 37° C. by a circulating water bath. FIG. 5A depicts plots of O2 levels in suspended astrocytes as labeled. FIG. 5B depicts a histogram showing the average change in O2 consumption with 2 μM ATP compared to untreated cells (control). Bars on the right show O2 consumption of Astrocytes are preloaded 0.01 uM Oligomycin (30 minutes).

[2] = system: Neurons in the absence of astrocytes; experiment: Neuronal survival under t-buOOH in the absence of astrocytes (transwells removed before ligand treatment)
Description: Primary cultures of astrocytes were prepared as previously published (Lin et al., 2005). C57BL/6 male mice were purchased from the National Institute of Aging and maintained in standard accredited housing conditions at the University of Texas Health Science Center Animal Facility. Animal protocols were approved by our Institutional Animal Care Use Committee. Astrocytes were cultured in DMEM F-12 media (Invitrogen, # 11039-021) supplemented with 2 mM glutamine, nonessential amino acids, 10% fetal calf serum, 100 U/ml penicillin/streptomycin (Cambrex BioScience Walkersville, #17-602E) and 1% fungizone (Invitrogen, #15290-018) at 37° C. in an atmosphere containing 5% CO2. The culture medium was changed every 3-5 days. Confluent cells were gently removed by a trypsin EDTA solution and re-plated on 35 mm glass bottom chambers (Bioptechs #04200415C) prior to imaging experiments 3-4 days later. Cells were maintained in plastic culture flasks until the final re-seeding of cells onto a glass bottom chamber and were passed up to 3 times for astrocyte only experiments. For co-culture experiments with neurons, primary astrocytes were plated directly onto corning transwell-clear permeable supports, which physically separates the two cell-types by ˜1 mm (# 07-200-170, Fisher scientific). Astrocytes were cultured in transwells until they were ˜70% confluent. Mouse cortical neurons (Cambrex Bio Science Walkersville Inc., # M-CX-300) were then cultured onto 6 well mat-tek glass bottom plates and maintained in Neurobasal Medium (Invitrogen, # 21103-049), 2 mM L-Glutamine (Cambrex BioScience Walkersville, #17-605E), 100 U/ml penicillin/streptomycin (Cambrex BioScience Walkersville, #17-602E) and B-27 with (Invitrogen, #17504-044) and without antioxidants (Invitrogen, #10889-038), which controls glia contamination to less than 0.5%. The transwell supports with cultured astrocytes were placed in the neuron seeded glass bottom chambers for four days before imaging and both cell types were then maintained in neuronal media. For neuron only experiments, the astrocytes on the transwell supports were removed prior to treatments and imaging.
Sensitivity of neurons to oxidative stress was assessed by treating cultures with 100 μM tert-butyl hydrogen peroxide (t-BuOOH, Sigma, #B-2633) for 3 hours. Neurons were then stained with Hoechst 33342 (10 μg/ml, Molecular Probes, #H-3570) to label all cell nuclei and calcein AM (2 μM, #C3100, Molecular Probes, #C3100). […] Calcein fluorescence is only observed in live cells that have maintained their plasma membrane integrity. Images were acquired on an inverted Nikon TE300 microscope with a Hamamatsu ORCAER camera and Open lab software (Improvision).
Activation of neuronal P2X receptors has been reported neurotoxic. Consequently, we further examined the affects of P2Y-R activation on neuronal survival in the absence of astrocytes. Neurons were co-cultured with astrocytes in transwell dishes that were removed from the cultures just prior to treating the neurons with purinergic ligands. Neurons in the absence of astrocytes were then exposed to t-buOOH (100 μM, 4.5 hours with normal B-27, 3 hours with antioxidant-free B-27) and cell viability was assessed by the ability of neurons to retain calcien. […] The same results were found for neurons initially co-cultured with old astrocytes. […]

[3] = system: astrocytes; experiment: Intracellular ATP determination (luciferin-luciferase)
Description: Intracellular ATP was measured using a luciferin-luciferase kit (Invitrogen, #22066). Plated astrocytes were trypsinized and washed 3× with PBS buffer (GIBCO #14190). An aliquot of cells was set aside to measure the cell density with a hemocytometer. The cells were then suspended in a lysate buffer (4 mM EDTA and 100 mM Tris, pH 7.75) and immediately heated to 100° C. for 5 minutes to minimize enzymatic changes in ATP levels. The supernatant was collected after a 10,000 g centrifugation for 1 minute and used with the luciferin/luciferase kit according to the manufacturer's instructions. Luminescence was measured with a Synergy™ HT Multi-Detection Microplate Reader (BioTek). ATP levels were normalized by cell density.
Our next approach to investigate the role of mitochondrial metabolism was to directly measure ATP levels in cultures astrocytes using a luciferin-luciferase assay (Invitrogen). Astrocytes were cultured as described above, trypsinized and washed with buffer. The cells were then suspended in a lysate buffer and immediately heated to 100° C. (5 min) to minimize enzymatic changes in ATP levels. After centrifugation, the ATP dependent luminescence of supernatant was measured with a microplate reader (Biotek). FIG. 5C depicts histograms of the direct measurement of intracellular ATP levels relative to untreated cells (control), P2Y-R stimulated (MeADP), then the same measurements in the presence of oligomycin (oligo) or ruthenium 360 (Ru360). We estimated that the resting intracellular ATP concentration in cultured astrocytes was 0.31±0.14 μM ATP/10^4 cells (n=3). […] Finally, we tested whether ruthenium 360 (Ru360; Calbiochem), a polycation that inhibits the electrogenic mitochondrial Ca^2+ uniporter, affected mitochondrial ATP production.

[4] = neurons initially co-cultured with old astrocytes, astrocytes removed, t-buOOH 100 μM
[5] = neurons without astrocytes, normal B-27, t-buOOH 100 μM 4.5 hours

SMILES | rate of O2 consumption ([1]; bolus of ATP, 2 μM final concentration) | % neurons alive [2, 4] | % neurons alive ([2]; neurons without astrocytes, anti-oxidant-free B-27, t-buOOH 100 μM 3 hours) | % neurons alive [2, 5] | intracellular ATP levels ([3]; 2-MeSADP 2 μM for 10 minutes) | rate of O2 consumption ([1]; oligomycin 0.01 μM 30 minutes + extracellular ATP) | rate of O2 consumption ([1]; oligomycin 0.01 μM, 30 minutes) | effect on P2Y1-R (2-MeSADP) mediated increases in ATP ([3]; oligomycin 0.01 μM 30 min pretreatment + 2-MeSADP) | resting levels of ATP, % of control ([3]; oligomycin 0.01 μM, 30 min)
Nc1ncnc2c1ncn2[C@@H]1O[C@H](COP(=O)(O)OP(=O)(O)OP(=O)(O)O)[C@@H](O)[C@H]1O [ATP] | 3.67 ± 0.3 nmol/min | 49±6% | 18±2% | 56±7% |  |  |  |  | 
CSc1nc(N)c2ncn([C@@H]3O[C@H](COP(=O)(O)OP(=O)(O)O)[C@@H](O)[C@H]3O)c2n1 [2-MeSADP] |  | 72±3% |  | 74±3% | 0.39±0.16 μM ATP/10^4 cells |  |  |  | 
CC[C@H]1/C=C/C=C/C[C@@H](C)[C@H](O)[C@@](C)(O)C(=O)[C@@H](C)[C@H](O)[C@@H](C)C(=O)[C@@H](C)[C@H](O)[C@@H](C)/C=C/C(=O)O[C@@H]2[C@H](C)[C@H](CC1)O[C@]1(CC[C@H](C)[C@H](C[C@@H](C)O)O1)[C@H]2C [oligomycin] |  |  |  |  |  | 1.19 ± 0.27 nmol/min | 0.97 ± 0.21 nmol/min | completely inhibited | 82.6%±3.2 % of control
